This is an account of results in patent US11667602B2, “Compounds and their use” (AstraZeneca AB, priority 2020, dated 2023).

Like-named read-outs stand apart in the source and are kept apart here.

The test has as its target T1, human RXFP1 (Homo sapiens, UniProt Q9HBX9).
T1 sequence (Q9HBX9 1-757): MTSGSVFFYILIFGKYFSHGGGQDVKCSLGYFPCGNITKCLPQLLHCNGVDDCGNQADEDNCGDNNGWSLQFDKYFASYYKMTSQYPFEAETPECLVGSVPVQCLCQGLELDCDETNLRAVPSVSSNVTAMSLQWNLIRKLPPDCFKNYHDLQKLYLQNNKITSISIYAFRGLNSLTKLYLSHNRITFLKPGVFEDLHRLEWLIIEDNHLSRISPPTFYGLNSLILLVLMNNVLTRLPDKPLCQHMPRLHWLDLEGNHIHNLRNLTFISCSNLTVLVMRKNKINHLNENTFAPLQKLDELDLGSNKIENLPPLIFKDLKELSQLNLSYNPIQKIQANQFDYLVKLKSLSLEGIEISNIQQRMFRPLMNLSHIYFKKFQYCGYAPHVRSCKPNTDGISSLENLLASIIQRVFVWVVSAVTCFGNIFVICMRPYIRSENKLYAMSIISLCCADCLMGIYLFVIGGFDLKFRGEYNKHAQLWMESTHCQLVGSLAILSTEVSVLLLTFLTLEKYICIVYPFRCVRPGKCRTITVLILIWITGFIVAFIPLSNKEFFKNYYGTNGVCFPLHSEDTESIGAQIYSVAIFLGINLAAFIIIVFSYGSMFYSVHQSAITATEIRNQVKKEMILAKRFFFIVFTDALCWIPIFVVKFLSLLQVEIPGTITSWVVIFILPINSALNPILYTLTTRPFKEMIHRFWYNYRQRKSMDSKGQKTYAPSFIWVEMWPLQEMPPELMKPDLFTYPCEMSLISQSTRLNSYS
The test is described as follows: RXFP1 Hu cAMP (Test A). Format: cell-based. Also noted: expressed in transfected cells; host or cells: Jump-In T-REx CHO-K1 cells (ThermoFisher), induced with 10 ng/ml doxycycline for 24 h. Summed up: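 CHO-K1 (Jump-In T-REx), RXFP1 induced w/ 10 ng/ml doxycycline 24 h, cryopreserved. 0.5 mM IBMX final. cAMP by HTRF, 2 h RT, std curve.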

Setting [1] is: RXFP1 Hu cAMP, read-out: Test A EC50.

For `COc1cc(F)c(-c2cnc(C(=O)O)nc2)cc1C(=O)N[C@H]1[C@@H](C(=O)Nc2cccc(S(=O)(=O)C(F)(F)F)c2)[C@@H]2C=C[C@H]1C2` (racemic) [Example 280], the EC50 under setting [1] is greater than 40000 nM.

As for `COc1cc(F)c(O[C@H]2CC[C@@](C)(C(=O)O)CC2)cc1C(=O)N[C@@H]1COC[C@@H]1C(=O)NCC1(C)CCC1` (racemic) [Example 350], the “Test A Sinf” value (RXFP1 Hu cAMP) was 97%. For the same compound, the concentration giving a half-maximal response (EC50) under setting [1] worked out at 3900 nM. On the same counts, the results for `COc1cc(F)c(-c2cccc([C@@H](C(=O)O)N(C)C)c2)cc1C(=O)N[C@@H]1[C@H]2CC[C@H](C2)[C@@H]1C(=O)Nc1cccc(S(=O)(=O)C(F)(F)F)c1` (racemic) [Example 294] are 95% and 370 nM. On the same counts, the results for `COc1cc(F)c(OCc2cccc(C(=O)O)c2)cc1C(=O)N[C@H]1[C@@H](C(=O)Nc2cccc(S(=O)(=O)C(F)(F)F)c2)[C@@H]2C=C[C@H]1C2` (racemic) [Example 449] are 108% and 1600 nM.

Take `COc1cc(C#N)c(O[C@H]2CC[C@@](C)(C(=O)O)CC2)cc1C(=O)N[C@@H]1C2CCC(CC2)[C@@H]1C(=O)NCC1(C)CCC1` (racemic) [Example 468, (1R,4s)-4-(2-Cyano-4-methoxy-5-(((2SR,3RS)-3-(((1-methylcyclobutyl)methyl)carbamoyl)bicyclo[2.2.2]octan-2-yl)carbamoyl)phenoxy)-1-methylcyclohexane-1-carboxylic acid]: the “Test A Sinf” value (RXFP1 Hu cAMP) is listed as 93%. The concentration for a half-maximal effect (EC50) under setting [1] amounted to 4.1 nM.

On to `COC[C@]1(C(=O)O)CC[C@@H](Oc2cc(C(=O)N[C@@H]3[C@H]4CC[C@H](C4)[C@@H]3C(=O)NCC(C)(C)C)c(OC)cc2F)CC1` [Example 481], for which the “Test A Sinf” value (RXFP1 Hu cAMP) is given as 96%. Still for that read-out and setting: with “(1R,4s)-4-(2-Fluoro-4-methoxy-5-(((3S*,4R*)-4-(neopentylcarbamoyl)tetrahydrofuran-3-yl)carbamoyl)phenoxy)-1-(hydroxymethyl)cyclohexane-1-carboxylic acid [Example 579]” the figure was 120%. With `COc1cc(F)c(O[C@H]2CC[C@@](O)(C(=O)O)CC2)cc1C(=O)N[C@@H]1[C@@H]2CC[C@@H](C2)[C@@H]1C(=O)Nc1cccc(S(=O)(=O)C(F)(F)F)c1` (racemic) [Example 422, (1R,4r)-4-(2-Fluoro-4-methoxy-5-(((1RS,2RS,3SR,4SR)-3-((3-((trifluoromethyl)sulfonyl)phenyl)carbamoyl)bicyclo[2.2.1]heptan-2-yl)carbamoyl)phenoxy)-1-hydroxycyclohexane-1-carboxylic acid], the “Test A Sinf” value (RXFP1 Hu cAMP) worked out at 102%. Under setting [1], the concentration giving a half-maximal response (EC50) stood at 86 nM. On the same counts, the results for `COc1cc(C#N)c(O[C@H]2CC[C@@](C)(C(=O)O)CC2)cc1C(=O)N[C@@H]1CCCC[C@@H]1C(=O)NCC1(C)CCC1` [Example 361] are 91% and 780 nM. On the same counts, the results for `COc1cc(F)c(OC2CCC(CO)(C(=O)O)CC2)cc1C(=O)N[C@H]1[C@H]2CC[C@H](C2)[C@H]1C(=O)Nc1cccc(S(=O)(=O)C(F)(F)F)c1` (relative stereo) [Example 585, (1R,4s)-4-(2-Fluoro-4-methoxy-5-(((1S*,2S*,3R*,4R*)-3-((3-((trifluoromethyl)sulfonyl)phenyl)carbamoyl)bicyclo[2.2.1]heptan-2-yl)carbamoyl)phenoxy)-1-(hydroxymethyl)cyclohexane-1-carboxylic acid] are 93% and 240 nM. In the case of `COc1cc(F)c(O[C@H]2CC[C@H](S(N)(=O)=O)CC2)cc1C(=O)N[C@@H]1[C@@H]2CC[C@@H](C2)[C@@H]1C(=O)Nc1cccc(S(=O)(=O)C(F)(F)F)c1` [Example 462, (1S,2S,3R,4R)-3-(4-fluoro-2-methoxy-5-(((1r,4R)-4-sulfamoylcyclohexyl)oxy)benzamido)-N-(3-((trifluoromethyl)sulfonyl)phenyl)bicyclo[2.2.1]heptane-2-carboxamide], the “Test A Sinf” value (RXFP1 Hu cAMP) was 125%. As to `COc1cc(F)c(-c2ccc(C(=O)O)cc2)cc1C(=O)N[C@H]1[C@@H]2CC[C@@H](C2)[C@H]1C(=O)Nc1ccc(F)c(C(F)(F)F)c1` (single isomer, unassigned) [Example 590], the 50% effective concentration (EC50) under setting [1] is greater than 40000 nM. Consider `COc1ccc(Oc2cccc(C(=O)O)c2)cc1C(=O)N[C@H]1[C@@H](C(=O)Nc2cccc(S(=O)(=O)C(F)(F)F)c2)[C@@H]2C=C[C@H]1C2` (racemic) [Example 428], for which the “Test A Sinf” value (RXFP1 Hu cAMP) came to 80%. The EC50 under setting [1] worked out at 5100 nM. In the case of `COc1cc(C#N)c(O[C@H]2CC[C@@](C)(C(=O)O)CC2)cc1C(=O)Nc1cc(Cl)ccc1C(=O)NCC1CCCCCC1` [Example 157, (1s,4s)-4-(5-((5-Chloro-2-((cycloheptylmethyl)carbamoyl)phenyl)carbamoyl)-2-cyano-4-methoxyphenoxy)-1-methylcyclohexane-1-carboxylic acid], the “Test A Sinf” value (RXFP1 Hu cAMP) is listed as 118%. Further, under setting [1], the EC50 amounted to 88 nM. Consider `COc1cc(F)c(OC2CCC(CO)(C(=O)O)CC2)cc1C(=O)N[C@H]1[C@@H](C(=O)NCC2(C)CCC2)[C@H]2CC[C@@H]1O2` (relative stereo) [Example 533, (1R,4s)-4-(2-Fluoro-4-methoxy-5-(((1S*,2S*,3R*,4R*)-3-(((1-methylcyclobutyl)methyl)carbamoyl)-7-oxabicyclo[2.2.1]heptan-2-yl)carbamoyl)phenoxy)-1-(hydroxymethyl)cyclohexane-1-carboxylic acid], for which the EC50 under setting [1] is greater than 40000 nM. The same measure, in the same setting: for `COc1cc(C#N)c(O[C@H]2CC[C@@](C)(C(=O)O)CC2)cc1C(=O)NC1CCC1C(=O)NCC1(C)CCC1` (single isomer, unassigned) [Example 572, (1R,4s)-4-(2-Cyano-4-methoxy-5-(((1S*,2R*)-2-(((1-methylcyclobutyl)methyl)carbamoyl)cyclobutyl)carbamoyl)phenoxy)-1-methylcyclohexane-1-carboxylic acid] the value was greater than 40000 nM.

In the case of `COCc1cc(OC)c(C(=O)N[C@@H]2[C@H]3CC[C@H](C3)[C@@H]2C(=O)NCC2(C)CCC2)cc1O[C@H]1CC[C@@](C)(C(=O)O)CC1` [Example 402], where the note is “RXFP1 Hu cAMP”, the “Test A Sinf” value is on record as 131%. This compound also had a concentration giving a half-maximal response (EC50) (Test A EC50, RXFP1 Hu cAMP) of 620 nM. For `COc1cc(F)c(O[C@H]2CC[C@@](C)(C(=O)O)CC2)cc1C(=O)NC1COCC1C(=O)Nc1cccc(S(=O)(=O)C(F)(F)F)c1` (single isomer, unassigned) [Example 560, (1R,4s)-4-(2-Fluoro-4-methoxy-5-(((3S*,4R*)-4-((3-((trifluoromethyl)sulfonyl)phenyl)carbamoyl)tetrahydrofuran-3-yl)carbamoyl)phenoxy)-1-methylcyclohexane-1-carboxylic acid], under setting [1], the EC50 was greater than 40000 nM. `COc1cc(F)c([C@H]2CC[C@H](C(=O)O)CC2)cc1C(=O)N[C@@H]1[C@H]2CC[C@H](C2)[C@@H]1C(=O)Nc1cccc(S(=O)(=O)C(F)(F)F)c1` [Example 269, (1R,4r)-4-(2-fluoro-4-methoxy-5-(((1S,2R,3S,4R)-3-((3-((trifluoromethyl)sulfonyl)phenyl)carbamoyl)bicyclo[2.2.1]heptan-2-yl)carbamoyl)phenyl)cyclohexane-1-carboxylic acid]: where the note is “RXFP1 Hu cAMP”, the “Test A Sinf” value amounted to 44%. The 50% effective concentration (EC50) under setting [1] is 2900 nM.

`COc1cc(F)c(O[C@H]2CC[C@@](OC)(C(=O)O)CC2)cc1C(=O)N[C@@H]1[C@@H]2CC[C@@H](C2)[C@@H]1C(=O)Nc1cccc(S(=O)(=O)C(F)(F)F)c1` [Example 508, (1R,4r)-4-(2-Fluoro-4-methoxy-5-(((1R,2R,3S,4S)-3-((3-((trifluoromethyl)sulfonyl)phenyl)carbamoyl)bicyclo[2.2.1]heptan-2-yl)carbamoyl)phenoxy)-1-methoxycyclohexane-1-carboxylic acid]: the “Test A Sinf” value (RXFP1 Hu cAMP) was 112%. Also, the concentration giving a half-maximal response (EC50) under setting [1] was determined as 13 nM.

As for `COc1cc(C#N)c(O[C@H]2CC[C@@](C)(C(=O)O)CC2)cc1C(=O)Nc1cc(C)ccc1C(=O)N[C@H](C)C(C)C` [Example 170], for the setting “RXFP1 Hu cAMP”, the “Test A Sinf” value came out at 136%. The EC50 under setting [1] was 190 nM. For the compound `COc1cc(C#N)c(O[C@H]2CC[C@@](C)(C(=O)O)CC2)cc1C(=O)N[C@@H]1[C@H]2CC[C@H](C2)[C@@H]1C(=O)NCC1CCOCC1` [Example 137], the “Test A Sinf” value (RXFP1 Hu cAMP) was found to be 93%. For the same compound, the 50% effective concentration (EC50) under setting [1] is greater than 2300 nM. The corresponding values for `COc1cc(C#N)c(O[C@H]2CC[C@@](C)(C(=O)O)CC2)cc1C(=O)Nc1cc(Cl)ccc1C(=O)NC(C)(C)C1CC1` [Example 165] are 111% and 12 nM.

For the compound `COCCOc1cc(F)c(O[C@H]2CC[C@@](C)(C(=O)O)CC2)cc1C(=O)N[C@@H]1[C@H]2CC[C@H](C2)[C@@H]1C(=O)NCC1(C)CCC1` [Example 391], for the setting “RXFP1 Hu cAMP”, the “Test A Sinf” value amounted to 99%. Further, the concentration giving a half-maximal response (EC50) under setting [1] is 110 nM.
